We go through 24 compounds from patent publication US7608718B2, “4,5-dihydro-1H-pyrazole derivatives having potent CB1-antagonistic activity” (Solvay Pharmaceuticals B.V., priority 2001, dated 2009).

Take `CSC(=NS(=O)(=O)N1CCS(=O)(=O)CC1)N1CC(c2ccccc2)C(c2ccc(Cl)cc2)=N1` (stereo not drawn) [Example 53, 3-(4-Chlorophenyl)-N-((1,1-dioxidothiomorpholin-4-yl)sulfonyl)-4-phenyl-4,5-dihydro-1H-pyrazole-1-carboximidothioic acid methyl ester]: the melting point fell in the range of 216 to 217 °C. For the compound `O=S(=O)(N=C(NC1CC1)N1CC(c2ccccc2)C(c2ccc(Cl)cc2)=N1)N1CCCCC1` (stereo not drawn) [Example 56, 3-(4-Chlorophenyl)-N-cyclopropyl-4-phenyl-N′-((piperidin-1-yl)sulfonyl)-4,5-dihydro-1H-pyrazole-1-carboxamidine], the melting point was in the range of 142 to 144 °C. For the compound `CCN(CC)S(=O)(=O)N=C(NC)N1CC(O)(c2ccccc2)C(c2ccc(Cl)cc2)=N1` (stereo not drawn) [Example 57, 3-(4-Chlorophenyl)-N′-((diethylamino)sulfonyl)-N-methyl-4-hydroxy-4-phenyl-4,5-dihydro-1H-pyrazole-1-carboxamidine], the melting point fell in the range of 180 to 182 °C. The result for `CCN(CC)S(=O)(=O)N=C(NC)N1CC(c2ccccc2)C(c2ccc(Cl)s2)=N1` (stereo not drawn) [Example 58, 3-(5-Chlorothien-2-yl)-N′-((diethylamino)sulfonyl)-N-methyl-4-phenyl-4,5-dihydro-1H-pyrazole-1-carboxamidine] reads 122 to 123 °C; that for `CC(C)NC(=NS(=O)(=O)N(C)C)N1CC(c2ccccc2)C(c2ccc(Cl)cc2)=N1` (stereo not drawn) [Example 59, 3-(4-Chlorophenyl)-N′-((dimethylamino)sulfonyl)-N-isopropyl-4-phenyl-4,5-dihydro-1H-pyrazole-1-carboxamidine], 169 to 170 °C. The compound `CN1CCC(NC(=NS(=O)(=O)N(C)C)N2CC(c3ccccc3)C(c3ccc(Cl)cc3)=N2)CC1` (stereo not drawn) [Example 60, 3-(4-Chlorophenyl)-N′-((dimethylamino)sulfonyl)-N-(1-methylpiperidin-4-yl)-4-phenyl-4,5-dihydro-1H-pyrazole-1-carboxamidine] came in with a melting point of 144 to 146 °C.

Take `CCN(CC)S(=O)(=O)N=C(N(C)C)N1CC(O)(c2ccccc2)C(c2ccc(Cl)cc2)=N1` (stereo not drawn) [Example 63, 3-(4-Chlorophenyl)-N′-((diethylamino)sulfonyl)-N,N-dimethyl-4-hydroxy-4-phenyl-4,5-dihydro-1H-pyrazole-1-carboxamidine]: the melting point fell in the range of 135 to 137 °C. `CCN(CC)S(=O)(=O)N=C(N(C)C)N1CC(c2ccccc2)C(c2ccc(F)cc2)=N1` (stereo not drawn) [Example 64, N′-((Diethylamino)sulfonyl)-N,N-dimethyl-3-(4-fluorophenyl)-4-phenyl-4,5-dihydro-1H-pyrazole-1-carboxamidine] came in with a melting point of 159 to 160 °C. In the case of `CCNC(=NS(=O)(=O)N(CC)CC)N1CC(O)(c2ccccc2)C(c2ccc(Cl)cc2)=N1` (stereo not drawn) [Example 68, 3-(4-Chlorophenyl)-N′-((diethylamino)sulfonyl)-N-ethyl-4-hydroxy-4-phenyl-4,5-dihydro-1H-pyrazole-1-carboxamidine], the melting point was in the range of 162 to 165 °C. On to `CCN(CC)S(=O)(=O)N=C(NC)N1CC(c2ccncc2)C(c2ccc(Cl)cc2)=N1` (stereo not drawn) [Example 71, N′-((Diethylamino)sulfonyl)-3-(4-chlorophenyl)-N-methyl-4-(pyridin-4-yl)-4,5-dihydro-1H-pyrazole-1-carboxamidine], for which the melting point was in the range of 109 to 111 °C.

In turn, `CNC(=NS(=O)(=O)N(C)C)N1CC(c2cccnc2)C(c2ccc(Cl)cc2)=N1` (stereo not drawn) [Example 72, 3-(4-Chlorophenyl)-N′-((dimethylamino)sulfonyl)-N-methyl-4-(pyridin-3-yl)-4,5-dihydro-1H-pyrazole-1-carboxamidine] registered a melting point of 157 to 159 °C. Consider `CNC(=NS(=O)(=O)N(C)C)N1CC(c2ccncc2)C(c2ccc(Cl)cc2)=N1` (stereo not drawn) [Example 74, 3-(4-Chlorophenyl)-N′-((dimethylamino)sulfonyl)-N-methyl-4-(pyridin-4-yl)-4,5-dihydro-1H-pyrazole-1-carboxamidine], for which the melting point lay within 178 to 182 °C.

In the case of `CNC(=NS(=O)(=O)N1CCCCC1)N1CC(c2cccnc2)C(c2ccc(Cl)cc2)=N1` (stereo not drawn) [Example 78, 3-(4-Chlorophenyl)-N-methyl-N′-((piperidin-1-yl)sulfonyl)-4-(pyridin-3-yl)-4,5-dihydro-1H-pyrazole-1-carboxamidine], the melting point lay within 174 to 177 °C. For `CNC(=NS(=O)(=O)N1CCOCC1)N1CC(c2c(F)cccc2F)C(c2ccc(Cl)cc2)=N1` (stereo not drawn) [Example 79, 3-(4-Chlorophenyl)-4-(2,6-difluorophenyl)-N-methyl-N′-((morpholin-4-yl)sulfonyl)-4,5-dihydro-1H-pyrazole-1-carboxamidine], the melting point is 223 to 235 °C. Compound `CNC(=NS(=O)(=O)N(C)C)N1CC(c2c(F)cccc2F)C(c2ccc(Cl)cc2)=N1` (stereo not drawn) [Example 80, 3-(4-Chlorophenyl)-4-(2,6-difluorophenyl)-N′-((dimethylamino)sulfonyl)-N-methyl-4,5-dihydro-1H-pyrazole-1-carboxamidine] displayed a melting point of 214 to 216 °C. Turning to `CNC(=NS(=O)(=O)N1CCCCC1)N1CC(c2c(F)cccc2F)C(c2ccc(Cl)cc2)=N1` (stereo not drawn) [Example 81, 3-(4-Chlorophenyl)-4-(2,6-difluorophenyl)-N-methyl-N′-((piperidin-1-yl)sulfonyl)-4,5-dihydro-1H-pyrazole-1-carboxamidine], the melting point lay in the range of 260 to 263 °C. For the compound `CNC(=NS(=O)(=O)N1CCCCC1)N1CC(c2cccc(F)c2)C(c2ccc(Cl)cc2)=N1` (stereo not drawn) [Example 82, 3-(4-Chlorophenyl)-4-(3-fluorophenyl)-N-methyl-N′-((piperidin-1-yl)sulfonyl)-4,5-dihydro-1H-pyrazole-1-carboxamidine], the melting point was determined as 170 °C. As for `CNC(=NS(=O)(=O)N1CCCCC1)N1CC(c2ccccc2F)C(c2ccc(Cl)cc2)=N1` (stereo not drawn) [Example 83, 3-(4-Chlorophenyl)-4-(2-fluorophenyl)-N-methyl-N′-((piperidin-1-yl)sulfonyl)-4,5-dihydro-1H-pyrazole-1-carboxamidine], the figure is 223 to 225 °C; as for `CNC(=NS(=O)(=O)N(C)C)N1CC(c2ccccc2F)C(c2ccc(Cl)cc2)=N1` (stereo not drawn) [Example 84, 3-(4-Chlorophenyl)-N′-((dimethylamino)sulfonyl)-4-(2-fluorophenyl)-N-methyl-4,5-dihydro-1H-pyrazole-1-carboxamidine], 173 to 175 °C; as for `CNC(=NS(=O)(=O)N(C)C)N1CC(c2cccc(F)c2)C(c2ccc(Cl)cc2)=N1` (stereo not drawn) [Example 85, 3-(4-Chlorophenyl)-N′-((dimethylamino)sulfonyl)-4-(3-fluorophenyl)-N-methyl-4,5-dihydro-1H-pyrazole-1-carboxamidine], 110 °C. In turn, `CNC(=NS(=O)(=O)N1CCOCC1)N1CC(c2ccccc2F)C(c2ccc(Cl)cc2)=N1` (stereo not drawn) [Example 86, 3-(4-Chlorophenyl)-4-(2-fluorophenyl)-N-methyl-N′-((morpholin-4-yl)sulfonyl)-4,5-dihydro-1H-pyrazole-1-carboxamidine] had a melting point of 165 to 168 °C. With `CNC(=NS(=O)(=O)N1CCC(O)CC1)N1CC(c2ccccc2)C(c2ccc(Cl)cc2)=N1` (stereo not drawn) [Example 88, 3-(4-Chlorophenyl)-N′-((4-hydroxypiperidin-1-yl)sulfonyl)-N-methyl-4-phenyl-4,5-dihydro-1H-pyrazole-1-carboxamidine], the melting point is 80 °C. `CCN(CCN(C)C)S(=O)(=O)N=C(SC)N1CC(c2ccccc2)C(c2ccc(Cl)cc2)=N1` (stereo not drawn) [Example 95, 3-(4-Chlorophenyl)-N-(((2-(dimethylamino)ethyl)ethylamino)sulfonyl)-4-phenyl-4,5-dihydro-1H-pyrazole-1-carboximidothioic acid methyl ester] displayed a melting point of 158 °C.

As for `CSC(=NS(=O)(=O)N1CCC(N2CCCCC2)CC1)N1CC(c2ccccc2)C(c2ccc(Cl)cc2)=N1` (stereo not drawn) [Example 97, 3-(4-Chlorophenyl)-N-(([1,4′]bipiperidin-1′-yl)sulfonyl)-4-phenyl-4,5-dihydro-1H-pyrazole-1-carboximidothioic acid methyl ester], the melting point came out at 245 °C.
